{"source": "the supplement of paper PMC10307832", "assay_in_all_cases": "relative viability (nuclei count vs DMSO), 5 days (fraction); higher = more cells survive", "key": {"COR-L23": {"tested_on": "COR-L23", "in_short": "(§1)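 One day after seeding in 1536-well plates, lung cancer cell lines were dosed by pin tool. Dosing was either single-drug or a fixed anchor-drug dose plus five library-drug doses (not always all listed) in √10 steps. After 5 days, nuclei were stained in one fix-and-stain step and counted on 4× images, and relative viability is the nuclei count of treated wells over that of vehicle wells, given as the median of duplicate plates.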"}, "201T": {"tested_on": "201T", "in_short": "as §1"}, "HCC-44": {"tested_on": "HCC-44", "in_short": "as §1"}, "HCC-15": {"tested_on": "HCC-15", "in_short": "as §1"}, "NCI-H1650": {"tested_on": "NCI-H1650", "in_short": "as §1"}, "EKVX": {"tested_on": "EKVX", "in_short": "as §1"}, "BEN": {"tested_on": "BEN", "in_short": "as §1"}, "A-427": {"tested_on": "A-427", "in_short": "as §1"}, "SW 900": {"tested_on": "SW 900", "in_short": "as §1"}, "SK-MES-1": {"tested_on": "SK-MES-1", "in_short": "as §1"}, "NCI-H441": {"tested_on": "NCI-H441", "in_short": "as §1"}, "HARA": {"tested_on": "HARA", "in_short": "as §1"}, "NCI-H650": {"tested_on": "NCI-H650", "in_short": "as §1"}, "NCI-H596": {"tested_on": "NCI-H596", "in_short": "as §1"}, "NCI-H23": {"tested_on": "NCI-H23", "in_short": "as §1"}, "NCI-H358": {"tested_on": "NCI-H358", "in_short": "as §1"}, "NCI-H2342": {"tested_on": "NCI-H2342", "in_short": "as §1"}, "HCC-827": {"tested_on": "HCC-827", "in_short": "as §1"}, "NCI-H838": {"tested_on": "NCI-H838", "in_short": "as §1"}, "NCI-H1437": {"tested_on": "NCI-H1437", "in_short": "as §1"}, "NCI-H1975": {"tested_on": "NCI-H1975", "in_short": "as §1"}}}
{"smiles": "COc1cc2nccc(Oc3ccc(NC(=O)Nc4cc(C)on4)c(Cl)c3)c2cc1OC", "note": "[Tivozanib] + O=C(CCCCCCC(=O)Nc1ccccc1)NO [Vorinostat] (partner 1 µM)", "values": [{"measurement": "relative viability", "setting": "COR-L23; first compound 0.005 µM", "value": 0.444}, {"measurement": "relative viability", "setting": "COR-L23; first compound 0.01581 µM", "value": 0.454}, {"measurement": "relative viability", "setting": "COR-L23; first compound 0.05 µM", "value": 0.607}, {"measurement": "relative viability", "setting": "COR-L23; first compound 0.1581 µM", "value": 0.33}, {"measurement": "relative viability", "setting": "COR-L23; first compound 0.5 µM", "value": 0.311}, {"measurement": "relative viability", "setting": "201T; first compound 0.005 µM", "value": 0.983}, {"measurement": "relative viability", "setting": "201T; first compound 0.01581 µM", "value": 0.99}, {"measurement": "relative viability", "setting": "201T; first compound 0.05 µM", "value": 1}, {"measurement": "relative viability", "setting": "201T; first compound 0.1581 µM", "value": 0.899}, {"measurement": "relative viability", "setting": "201T; first compound 0.5 µM", "value": 0.974}, {"measurement": "relative viability", "setting": "HCC-44; first compound 0.005 µM", "value": 1.03}, {"measurement": "relative viability", "setting": "HCC-44; first compound 0.01581 µM", "value": 1.09}, {"measurement": "relative viability", "setting": "HCC-44; first compound 0.05 µM", "value": 1.1}, {"measurement": "relative viability", "setting": "HCC-44; first compound 0.1581 µM", "value": 1.17}, {"measurement": "relative viability", "setting": "HCC-44; first compound 0.5 µM", "value": 1.02}, {"measurement": "relative viability", "setting": "HCC-15; first compound 0.005 µM", "value": 0.797}, {"measurement": "relative viability", "setting": "HCC-15; first compound 0.01581 µM", "value": 0.896}, {"measurement": "relative viability", "setting": "HCC-15; first compound 0.05 µM", "value": 0.857}, {"measurement": "relative viability", "setting": "HCC-15; first compound 0.1581 µM", "value": 0.863}, {"measurement": "relative viability", "setting": "HCC-15; first compound 0.5 µM", "value": 0.886}, {"measurement": "relative viability", "setting": "NCI-H1650; first compound 0.005 µM", "value": 0.638}, {"measurement": "relative viability", "setting": "NCI-H1650; first compound 0.01581 µM", "value": 0.529}, {"measurement": "relative viability", "setting": "NCI-H1650; first compound 0.05 µM", "value": 0.712}, {"measurement": "relative viability", "setting": "NCI-H1650; first compound 0.1581 µM", "value": 0.606}, {"measurement": "relative viability", "setting": "NCI-H1650; first compound 0.5 µM", "value": 0.545}, {"measurement": "relative viability", "setting": "EKVX; first compound 0.005 µM", "value": 0.787}, {"measurement": "relative viability", "setting": "EKVX; first compound 0.01581 µM", "value": 0.684}, {"measurement": "relative viability", "setting": "EKVX; first compound 0.05 µM", "value": 0.803}, {"measurement": "relative viability", "setting": "EKVX; first compound 0.5 µM", "value": 0.765}, {"measurement": "relative viability", "setting": "BEN; first compound 0.005 µM", "value": 0.577}, {"measurement": "relative viability", "setting": "BEN; first compound 0.01581 µM", "value": 0.572}, {"measurement": "relative viability", "setting": "BEN; first compound 0.05 µM", "value": 0.586}, {"measurement": "relative viability", "setting": "BEN; first compound 0.1581 µM", "value": 0.527}, {"measurement": "relative viability", "setting": "BEN; first compound 0.5 µM", "value": 0.522}, {"measurement": "relative viability", "setting": "A-427; first compound 0.005 µM", "value": 0.741}, {"measurement": "relative viability", "setting": "A-427; first compound 0.01581 µM", "value": 0.888}, {"measurement": "relative viability", "setting": "A-427; first compound 0.05 µM", "value": 0.824}, {"measurement": "relative viability", "setting": "A-427; first compound 0.1581 µM", "value": 0.857}, {"measurement": "relative viability", "setting": "A-427; first compound 0.5 µM", "value": 0.812}, {"measurement": "relative viability", "setting": "SW 900; first compound 0.005 µM", "value": 0.459}, {"measurement": "relative viability", "setting": "SW 900; first compound 0.01581 µM", "value": 0.481}, {"measurement": "relative viability", "setting": "SW 900; first compound 0.05 µM", "value": 0.627}, {"measurement": "relative viability", "setting": "SW 900; first compound 0.5 µM", "value": 0.464}, {"measurement": "relative viability", "setting": "SK-MES-1; first compound 0.005 µM", "value": 1.03}, {"measurement": "relative viability", "setting": "SK-MES-1; first compound 0.01581 µM", "value": 1.07}, {"measurement": "relative viability", "setting": "SK-MES-1; first compound 0.05 µM", "value": 1.13}, {"measurement": "relative viability", "setting": "SK-MES-1; first compound 0.1581 µM", "value": 1.07}, {"measurement": "relative viability", "setting": "SK-MES-1; first compound 0.5 µM", "value": 0.996}, {"measurement": "relative viability", "setting": "NCI-H441; first compound 0.005 µM", "value": 0.765}, {"measurement": "relative viability", "setting": "NCI-H441; first compound 0.01581 µM", "value": 0.771}, {"measurement": "relative viability", "setting": "NCI-H441; first compound 0.05 µM", "value": 0.743}, {"measurement": "relative viability", "setting": "NCI-H441; first compound 0.1581 µM", "value": 0.801}, {"measurement": "relative viability", "setting": "NCI-H441; first compound 0.5 µM", "value": 0.745}, {"measurement": "relative viability", "setting": "HARA; first compound 0.005 µM", "value": 0.422}, {"measurement": "relative viability", "setting": "HARA; first compound 0.01581 µM", "value": 0.456}, {"measurement": "relative viability", "setting": "HARA; first compound 0.05 µM", "value": 0.594}, {"measurement": "relative viability", "setting": "HARA; first compound 0.1581 µM", "value": 0.563}, {"measurement": "relative viability", "setting": "HARA; first compound 0.5 µM", "value": 0.507}, {"measurement": "relative viability", "setting": "NCI-H650; first compound 0.005 µM", "value": 0.348}, {"measurement": "relative viability", "setting": "NCI-H650; first compound 0.01581 µM", "value": 0.379}, {"measurement": "relative viability", "setting": "NCI-H650; first compound 0.05 µM", "value": 0.414}, {"measurement": "relative viability", "setting": "NCI-H650; first compound 0.1581 µM", "value": 0.29}, {"measurement": "relative viability", "setting": "NCI-H650; first compound 0.5 µM", "value": 0.296}, {"measurement": "relative viability", "setting": "NCI-H596; first compound 0.005 µM", "value": 0.618}, {"measurement": "relative viability", "setting": "NCI-H596; first compound 0.01581 µM", "value": 0.569}, {"measurement": "relative viability", "setting": "NCI-H596; first compound 0.05 µM", "value": 0.683}, {"measurement": "relative viability", "setting": "NCI-H596; first compound 0.5 µM", "value": 0.716}, {"measurement": "relative viability", "setting": "NCI-H23; first compound 0.005 µM", "value": 0.522}, {"measurement": "relative viability", "setting": "NCI-H23; first compound 0.01581 µM", "value": 0.484}, {"measurement": "relative viability", "setting": "NCI-H23; first compound 0.05 µM", "value": 0.6}, {"measurement": "relative viability", "setting": "NCI-H23; first compound 0.5 µM", "value": 0.375}, {"measurement": "relative viability", "setting": "NCI-H358; first compound 0.005 µM", "value": 0.652}, {"measurement": "relative viability", "setting": "NCI-H358; first compound 0.01581 µM", "value": 0.761}, {"measurement": "relative viability", "setting": "NCI-H358; first compound 0.05 µM", "value": 0.779}, {"measurement": "relative viability", "setting": "NCI-H358; first compound 0.1581 µM", "value": 0.62}, {"measurement": "relative viability", "setting": "NCI-H358; first compound 0.5 µM", "value": 0.37}, {"measurement": "relative viability", "setting": "NCI-H2342; first compound 0.005 µM", "value": 0.783}, {"measurement": "relative viability", "setting": "NCI-H2342; first compound 0.01581 µM", "value": 0.668}, {"measurement": "relative viability", "setting": "NCI-H2342; first compound 0.05 µM", "value": 0.719}, {"measurement": "relative viability", "setting": "NCI-H2342; first compound 0.5 µM", "value": 0.811}, {"measurement": "relative viability", "setting": "HCC-827; first compound 0.005 µM", "value": 0.69}, {"measurement": "relative viability", "setting": "HCC-827; first compound 0.01581 µM", "value": 0.851}, {"measurement": "relative viability", "setting": "HCC-827; first compound 0.05 µM", "value": 0.879}, {"measurement": "relative viability", "setting": "HCC-827; first compound 0.1581 µM", "value": 0.854}, {"measurement": "relative viability", "setting": "HCC-827; first compound 0.5 µM", "value": 0.864}, {"measurement": "relative viability", "setting": "NCI-H838; first compound 0.005 µM", "value": 0.75}, {"measurement": "relative viability", "setting": "NCI-H838; first compound 0.01581 µM", "value": 0.792}, {"measurement": "relative viability", "setting": "NCI-H838; first compound 0.05 µM", "value": 0.802}, {"measurement": "relative viability", "setting": "NCI-H838; first compound 0.1581 µM", "value": 0.746}, {"measurement": "relative viability", "setting": "NCI-H838; first compound 0.5 µM", "value": 0.696}, {"measurement": "relative viability", "setting": "NCI-H1437; first compound 0.005 µM", "value": 0.769}, {"measurement": "relative viability", "setting": "NCI-H1437; first compound 0.01581 µM", "value": 0.876}, {"measurement": "relative viability", "setting": "NCI-H1437; first compound 0.05 µM", "value": 0.815}, {"measurement": "relative viability", "setting": "NCI-H1437; first compound 0.1581 µM", "value": 0.746}, {"measurement": "relative viability", "setting": "NCI-H1437; first compound 0.5 µM", "value": 0.712}, {"measurement": "relative viability", "setting": "NCI-H1975; first compound 0.005 µM", "value": 0.663}, {"measurement": "relative viability", "setting": "NCI-H1975; first compound 0.01581 µM", "value": 0.731}, {"measurement": "relative viability", "setting": "NCI-H1975; first compound 0.05 µM", "value": 0.712}, {"measurement": "relative viability", "setting": "NCI-H1975; first compound 0.1581 µM", "value": 0.699}, {"measurement": "relative viability", "setting": "NCI-H1975; first compound 0.5 µM", "value": 0.666}]}
